{"source": "patent US4257941A", "about": "“Polycyclic nitrogen-containing compounds” (BASF Aktiengesellschaft, priority 1976, dated 1981)", "key": {"lawns": {"tested_on": "lawns", "assay": "Long-term action on lawns (Example 14)", "assay_type": "in vivo", "conditions": "for First cutting, green weight relative / First cutting, growth height relative / Second cutting, green weight relative / Second cutting, growth height relative / Third cutting, green weight relative: control 100"}, "wheat": {"tested_on": "wheat", "assay": "Growth height of wheat, greenhouse (Example 7)", "assay_type": "in vivo, wheat (Opal variety)", "conditions": "for Plant height relative: control 100", "text": "In the greenhouse, the four cereals wheat (\"Opal\" variety), rye (\"Petkuser\"), barley (\"Villa\") and oats (\"Flamingskrone\") were sown in plastic dishes 11.5 cm in diameter in a sandy loam adequately supplied with nutrients. The active ingredients were applied at various rates to the soil and to the leaves. When applied to the soil, the active ingredient were sprayed onto the surface of the soil on the day of sowing; in the case of leaf treatment, the leaves were sprayed in the usual manner at a growth height of the plants of 10 cm. During the 18 day growth period, the treated plants grew much more slowly than the untreated control, a fact later confirmed by measurements of the stem length. Measurements were taken of 100 plants from each series.\nThe prior art agent used for comparison purposes was N-2-chloroethyl-N,N,N-trimethylammonium chloride (CCC; German Printed Application DAS No. 1,294,734)."}}, "note": "Where a name gives a salt, the structure may show the parent alone.", "data": [{"molecule": "CC(=O)Nc1ccc(C)c(NS(=O)(=O)C(F)(F)F)c1", "note": "[S, diethanolamine salt of 3-trifluoromethylsulfonamido-p-acetotoluidide, reference compound]", "values": [{"measurement": "First cutting, green weight", "setting": "lawns; 0.5 kg/ha", "result": 26.7, "unit": "g"}, {"measurement": "First cutting, growth height", "setting": "lawns; 0.5 kg/ha", "result": 14.5, "unit": "cm"}, {"measurement": "Second cutting, green weight", "setting": "lawns; 0.5 kg/ha", "result": 27.3, "unit": "g"}, {"measurement": "Second cutting, growth height", "setting": "lawns; 0.5 kg/ha", "result": 14.0, "unit": "cm"}, {"measurement": "Third cutting, green weight", "setting": "lawns; 0.5 kg/ha", "result": 15.6, "unit": "g"}, {"measurement": "First cutting, green weight relative", "setting": "lawns; 0.5 kg/ha", "result": 75.6}, {"measurement": "First cutting, growth height relative", "setting": "lawns; 0.5 kg/ha", "result": 80.6}, {"measurement": "Second cutting, green weight relative", "setting": "lawns; 0.5 kg/ha", "result": 102.2}, {"measurement": "Second cutting, growth height relative", "setting": "lawns; 0.5 kg/ha", "result": 95.2}, {"measurement": "Third cutting, green weight relative", "setting": "lawns; 0.5 kg/ha", "result": 102.6}, {"measurement": "First cutting, green weight", "setting": "lawns; 1.0 kg/ha", "result": 23.0, "unit": "g"}, {"measurement": "First cutting, growth height", "setting": "lawns; 1.0 kg/ha", "result": 13.0, "unit": "cm"}, {"measurement": "Second cutting, green weight", "setting": "lawns; 1.0 kg/ha", "result": 27.6, "unit": "g"}, {"measurement": "Second cutting, growth height", "setting": "lawns; 1.0 kg/ha", "result": 12.5, "unit": "cm"}, {"measurement": "Third cutting, green weight", "setting": "lawns; 1.0 kg/ha", "result": 15.0, "unit": "g"}, {"measurement": "First cutting, green weight relative", "setting": "lawns; 1.0 kg/ha", "result": 65.2}, {"measurement": "First cutting, growth height relative", "setting": "lawns; 1.0 kg/ha", "result": 72.2}, {"measurement": "Second cutting, green weight relative", "setting": "lawns; 1.0 kg/ha", "result": 103.4}, {"measurement": "Second cutting, growth height relative", "setting": "lawns; 1.0 kg/ha", "result": 85.0}, {"measurement": "Third cutting, green weight relative", "setting": "lawns; 1.0 kg/ha", "result": 98.6}, {"measurement": "First cutting, green weight", "setting": "lawns; 2.0 kg/ha", "result": 12.6, "unit": "g"}, {"measurement": "First cutting, growth height", "setting": "lawns; 2.0 kg/ha", "result": 10.5, "unit": "cm"}, {"measurement": "Second cutting, green weight", "setting": "lawns; 2.0 kg/ha", "result": 20.1, "unit": "g"}, {"measurement": "Second cutting, growth height", "setting": "lawns; 2.0 kg/ha", "result": 9.5, "unit": "cm"}, {"measurement": "Third cutting, green weight", "setting": "lawns; 2.0 kg/ha", "result": 13.7, "unit": "g"}, {"measurement": "First cutting, green weight relative", "setting": "lawns; 2.0 kg/ha", "result": 35.7}, {"measurement": "First cutting, growth height relative", "setting": "lawns; 2.0 kg/ha", "result": 58.3}, {"measurement": "Second cutting, green weight relative", "setting": "lawns; 2.0 kg/ha", "result": 75.3}, {"measurement": "Second cutting, growth height relative", "setting": "lawns; 2.0 kg/ha", "result": 64.6}, {"measurement": "Third cutting, green weight relative", "setting": "lawns; 2.0 kg/ha", "result": 90.1}, {"measurement": "First cutting, green weight", "setting": "lawns; 4.0 kg/ha", "result": 9.4, "unit": "g"}, {"measurement": "First cutting, growth height", "setting": "lawns; 4.0 kg/ha", "result": 9.0, "unit": "cm"}, {"measurement": "Second cutting, green weight", "setting": "lawns; 4.0 kg/ha", "result": 9.6, "unit": "g"}, {"measurement": "Second cutting, growth height", "setting": "lawns; 4.0 kg/ha", "result": 4.5, "unit": "cm"}, {"measurement": "Third cutting, green weight", "setting": "lawns; 4.0 kg/ha", "result": 10.4, "unit": "g"}, {"measurement": "First cutting, green weight relative", "setting": "lawns; 4.0 kg/ha", "result": 26.6}, {"measurement": "First cutting, growth height relative", "setting": "lawns; 4.0 kg/ha", "result": 50.0}, {"measurement": "Second cutting, green weight relative", "setting": "lawns; 4.0 kg/ha", "result": 36.0}, {"measurement": "Second cutting, growth height relative", "setting": "lawns; 4.0 kg/ha", "result": 30.6}, {"measurement": "Third cutting, green weight relative", "setting": "lawns; 4.0 kg/ha", "result": 68.4}]}, {"molecule": "Clc1ccc(N2N=NC3C4CC(C5N=NC45)C32)cc1", "note": "(stereo not drawn) [drawing 344]", "values": [{"measurement": "Plant height", "setting": "wheat; soil, 0.5 kg/ha", "result": 28.5, "unit": "cm"}, {"measurement": "Plant height relative", "setting": "wheat; soil, 0.5 kg/ha", "result": 91.9}, {"measurement": "Plant height", "setting": "wheat; soil, 1.0 kg/ha", "result": 23.0, "unit": "cm"}, {"measurement": "Plant height relative", "setting": "wheat; soil, 1.0 kg/ha", "result": 74.2}, {"measurement": "Plant height", "setting": "wheat; soil, 2.0 kg/ha", "result": 20.5, "unit": "cm"}, {"measurement": "Plant height relative", "setting": "wheat; soil, 2.0 kg/ha", "result": 66.1}, {"measurement": "Plant height", "setting": "wheat; soil, 6.0 kg/ha", "result": 10.5, "unit": "cm"}, {"measurement": "Plant height relative", "setting": "wheat; soil, 6.0 kg/ha", "result": 33.9}]}, {"molecule": "Brc1ccc(N2N=NC3C4CC(C5N=NC45)C32)cc1", "note": "(stereo not drawn) [drawing 345]", "values": [{"measurement": "Plant height", "setting": "wheat; soil, 0.5 kg/ha", "result": 27.5, "unit": "cm"}, {"measurement": "Plant height relative", "setting": "wheat; soil, 0.5 kg/ha", "result": 88.7}, {"measurement": "Plant height", "setting": "wheat; soil, 1.0 kg/ha", "result": 22.5, "unit": "cm"}, {"measurement": "Plant height relative", "setting": "wheat; soil, 1.0 kg/ha", "result": 72.6}, {"measurement": "Plant height", "setting": "wheat; soil, 2.0 kg/ha", "result": 15.5, "unit": "cm"}, {"measurement": "Plant height relative", "setting": "wheat; soil, 2.0 kg/ha", "result": 50.0}, {"measurement": "Plant height", "setting": "wheat; soil, 6.0 kg/ha", "result": 11.5, "unit": "cm"}, {"measurement": "Plant height relative", "setting": "wheat; soil, 6.0 kg/ha", "result": 31.7}]}, {"molecule": "Clc1ccc(N2N=NC3C4CC(C5N=NC45)C32)cc1", "note": "(stereo not drawn) [drawing 346]", "values": [{"measurement": "Plant height", "setting": "wheat; leaf, 0.125 kg/ha", "result": 24.0, "unit": "cm"}, {"measurement": "Plant height relative", "setting": "wheat; leaf, 0.125 kg/ha", "result": 80.0}, {"measurement": "Plant height", "setting": "wheat; leaf, 0.5 kg/ha", "result": 22.0, "unit": "cm"}, {"measurement": "Plant height relative", "setting": "wheat; leaf, 0.5 kg/ha", "result": 73.3}, {"measurement": "Plant height", "setting": "wheat; leaf, 1.0 kg/ha", "result": 20.0, "unit": "cm"}, {"measurement": "Plant height relative", "setting": "wheat; leaf, 1.0 kg/ha", "result": 66.6}, {"measurement": "Plant height", "setting": "wheat; leaf, 2.0 kg/ha", "result": 19.0, "unit": "cm"}, {"measurement": "Plant height relative", "setting": "wheat; leaf, 2.0 kg/ha", "result": 63.3}, {"measurement": "Plant height", "setting": "wheat; leaf, 4.0 kg/ha", "result": 17.5, "unit": "cm"}, {"measurement": "Plant height relative", "setting": "wheat; leaf, 4.0 kg/ha", "result": 58.3}]}]}
